The record followed here is ChEMBL document CHEMBL4257223, “Histone demethylase inhibitors” (2016).

As a reminder, the IC50 is the concentration needed to halve the response being measured.

For assay [1], the target named is Lysine-specific demethylase 5B (Homo sapiens, UniProt Q9UGL1). In words: Inhibition of recombinant human N-terminal His-FLAG tagged JARID1B (2 to 751 residues) expressed in baculovirus infected sf9 cells using H3K4me3-biotin peptide as substrate after 30 mins in presence of alpha-ketoglutaric acid by LANCE TR-FRET assay.
Assay [2] concerns the target T1, Lysine-specific demethylase 4C (Homo sapiens, UniProt Q9H3R0).
T1 sequence (Q9H3R0 whole entry): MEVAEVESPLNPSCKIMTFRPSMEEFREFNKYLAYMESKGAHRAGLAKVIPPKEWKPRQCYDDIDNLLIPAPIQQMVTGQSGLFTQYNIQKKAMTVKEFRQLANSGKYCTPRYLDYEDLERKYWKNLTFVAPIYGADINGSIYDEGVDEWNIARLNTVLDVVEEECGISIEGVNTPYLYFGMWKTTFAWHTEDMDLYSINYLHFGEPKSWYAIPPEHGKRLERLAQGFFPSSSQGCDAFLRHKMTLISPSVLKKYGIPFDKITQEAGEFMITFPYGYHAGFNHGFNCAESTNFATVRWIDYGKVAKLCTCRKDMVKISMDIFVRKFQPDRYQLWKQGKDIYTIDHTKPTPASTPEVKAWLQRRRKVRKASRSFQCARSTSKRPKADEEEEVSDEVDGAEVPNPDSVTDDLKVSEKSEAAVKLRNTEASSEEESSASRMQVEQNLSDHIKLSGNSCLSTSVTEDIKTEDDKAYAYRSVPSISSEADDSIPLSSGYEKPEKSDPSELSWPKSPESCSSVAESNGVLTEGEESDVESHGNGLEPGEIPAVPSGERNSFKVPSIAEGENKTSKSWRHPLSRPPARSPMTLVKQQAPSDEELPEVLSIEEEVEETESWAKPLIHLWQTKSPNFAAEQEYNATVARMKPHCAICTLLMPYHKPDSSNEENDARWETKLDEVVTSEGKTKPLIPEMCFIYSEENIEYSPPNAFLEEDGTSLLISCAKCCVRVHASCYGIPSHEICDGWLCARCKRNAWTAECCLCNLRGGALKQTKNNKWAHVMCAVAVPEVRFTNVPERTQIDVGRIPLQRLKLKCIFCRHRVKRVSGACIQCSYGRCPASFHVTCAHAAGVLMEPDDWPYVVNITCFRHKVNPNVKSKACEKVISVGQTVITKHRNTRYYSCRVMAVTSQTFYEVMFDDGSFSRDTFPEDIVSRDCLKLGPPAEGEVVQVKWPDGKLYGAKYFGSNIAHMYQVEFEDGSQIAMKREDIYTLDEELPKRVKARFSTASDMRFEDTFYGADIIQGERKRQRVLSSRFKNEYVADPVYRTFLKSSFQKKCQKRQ
In words: Inhibition of recombinant human N-terminal GST-tagged JMJD2C (2 to 372 residues) expressed in baculovirus infected sf9 cells using H3K9me3-biotin peptide as substrate after 30 mins in presence of alpha-ketoglutaric acid by LANCE TR-FRET assay. Background: TR-FRET usually uses a lanthanide donor and a delayed reading to cut background.

For assay [3], the target named is T2, Lysine-specific demethylase 2B (Homo sapiens, UniProt Q8NHM5).
T2 sequence (Q8NHM5 whole entry): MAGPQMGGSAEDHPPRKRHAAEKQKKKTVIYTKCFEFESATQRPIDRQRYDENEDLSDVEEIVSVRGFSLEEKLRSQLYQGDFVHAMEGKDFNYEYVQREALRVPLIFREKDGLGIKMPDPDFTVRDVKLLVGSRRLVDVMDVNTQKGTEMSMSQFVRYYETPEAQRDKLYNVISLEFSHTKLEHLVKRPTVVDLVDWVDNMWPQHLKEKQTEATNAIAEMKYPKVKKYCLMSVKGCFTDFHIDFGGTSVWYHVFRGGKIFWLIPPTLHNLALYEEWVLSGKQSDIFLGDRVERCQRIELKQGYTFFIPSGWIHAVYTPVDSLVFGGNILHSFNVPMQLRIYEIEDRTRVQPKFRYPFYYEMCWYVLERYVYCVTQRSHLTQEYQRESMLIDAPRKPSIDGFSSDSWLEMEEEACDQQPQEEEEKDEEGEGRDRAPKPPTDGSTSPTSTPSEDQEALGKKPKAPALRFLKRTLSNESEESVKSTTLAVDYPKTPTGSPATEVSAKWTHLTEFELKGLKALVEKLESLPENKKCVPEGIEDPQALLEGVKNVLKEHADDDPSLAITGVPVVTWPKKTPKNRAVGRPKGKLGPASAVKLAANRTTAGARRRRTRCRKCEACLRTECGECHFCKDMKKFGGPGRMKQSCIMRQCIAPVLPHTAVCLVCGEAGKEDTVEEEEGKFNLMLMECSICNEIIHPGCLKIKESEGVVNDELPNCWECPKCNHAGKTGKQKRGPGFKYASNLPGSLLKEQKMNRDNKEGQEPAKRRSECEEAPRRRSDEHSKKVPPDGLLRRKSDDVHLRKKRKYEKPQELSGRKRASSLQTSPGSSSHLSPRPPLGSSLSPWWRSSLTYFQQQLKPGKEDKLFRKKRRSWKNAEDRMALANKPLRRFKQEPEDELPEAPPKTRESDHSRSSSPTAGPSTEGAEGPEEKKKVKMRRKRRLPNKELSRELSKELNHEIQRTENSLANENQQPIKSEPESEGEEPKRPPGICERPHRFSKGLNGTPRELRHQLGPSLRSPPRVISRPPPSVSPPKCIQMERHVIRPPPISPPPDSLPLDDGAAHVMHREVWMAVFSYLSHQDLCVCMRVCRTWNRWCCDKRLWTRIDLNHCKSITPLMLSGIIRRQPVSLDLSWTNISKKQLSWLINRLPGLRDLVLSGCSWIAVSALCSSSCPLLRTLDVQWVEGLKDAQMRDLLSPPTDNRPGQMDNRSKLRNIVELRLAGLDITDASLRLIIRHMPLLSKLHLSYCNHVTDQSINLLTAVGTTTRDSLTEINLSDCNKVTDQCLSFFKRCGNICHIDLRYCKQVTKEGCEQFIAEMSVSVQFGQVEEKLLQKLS
Nature of the assay: Inhibition of recombinant human C-terminal FLAG-tagged FBXL10 (1 to 650 residues) expressed in baculovirus infected sf9 cells using H3K36me2-biotin peptide as substrate after 30 mins in presence of alpha-ketoglutaric acid by AlphaScreen assay. (In general: Bead proximity is the source of the signal in Alpha formats.)

Assay [4] has as its target Lysine-specific demethylase 5A/5B (Homo sapiens, UniProt P29375+Q9UGL1). In words: Inhibition of KDM5A/KDM5B in human ZR-75-1 cells assessed as increase in H3K4me3 level after 72 hrs by fluorometric immunoblot analysis. The class given is cell-based. Background: In western blotting, separated proteins are transferred to a membrane and probed.

Lysine-specific demethylase 5B, sequence (Q9UGL1 whole entry, the tested form may be a part): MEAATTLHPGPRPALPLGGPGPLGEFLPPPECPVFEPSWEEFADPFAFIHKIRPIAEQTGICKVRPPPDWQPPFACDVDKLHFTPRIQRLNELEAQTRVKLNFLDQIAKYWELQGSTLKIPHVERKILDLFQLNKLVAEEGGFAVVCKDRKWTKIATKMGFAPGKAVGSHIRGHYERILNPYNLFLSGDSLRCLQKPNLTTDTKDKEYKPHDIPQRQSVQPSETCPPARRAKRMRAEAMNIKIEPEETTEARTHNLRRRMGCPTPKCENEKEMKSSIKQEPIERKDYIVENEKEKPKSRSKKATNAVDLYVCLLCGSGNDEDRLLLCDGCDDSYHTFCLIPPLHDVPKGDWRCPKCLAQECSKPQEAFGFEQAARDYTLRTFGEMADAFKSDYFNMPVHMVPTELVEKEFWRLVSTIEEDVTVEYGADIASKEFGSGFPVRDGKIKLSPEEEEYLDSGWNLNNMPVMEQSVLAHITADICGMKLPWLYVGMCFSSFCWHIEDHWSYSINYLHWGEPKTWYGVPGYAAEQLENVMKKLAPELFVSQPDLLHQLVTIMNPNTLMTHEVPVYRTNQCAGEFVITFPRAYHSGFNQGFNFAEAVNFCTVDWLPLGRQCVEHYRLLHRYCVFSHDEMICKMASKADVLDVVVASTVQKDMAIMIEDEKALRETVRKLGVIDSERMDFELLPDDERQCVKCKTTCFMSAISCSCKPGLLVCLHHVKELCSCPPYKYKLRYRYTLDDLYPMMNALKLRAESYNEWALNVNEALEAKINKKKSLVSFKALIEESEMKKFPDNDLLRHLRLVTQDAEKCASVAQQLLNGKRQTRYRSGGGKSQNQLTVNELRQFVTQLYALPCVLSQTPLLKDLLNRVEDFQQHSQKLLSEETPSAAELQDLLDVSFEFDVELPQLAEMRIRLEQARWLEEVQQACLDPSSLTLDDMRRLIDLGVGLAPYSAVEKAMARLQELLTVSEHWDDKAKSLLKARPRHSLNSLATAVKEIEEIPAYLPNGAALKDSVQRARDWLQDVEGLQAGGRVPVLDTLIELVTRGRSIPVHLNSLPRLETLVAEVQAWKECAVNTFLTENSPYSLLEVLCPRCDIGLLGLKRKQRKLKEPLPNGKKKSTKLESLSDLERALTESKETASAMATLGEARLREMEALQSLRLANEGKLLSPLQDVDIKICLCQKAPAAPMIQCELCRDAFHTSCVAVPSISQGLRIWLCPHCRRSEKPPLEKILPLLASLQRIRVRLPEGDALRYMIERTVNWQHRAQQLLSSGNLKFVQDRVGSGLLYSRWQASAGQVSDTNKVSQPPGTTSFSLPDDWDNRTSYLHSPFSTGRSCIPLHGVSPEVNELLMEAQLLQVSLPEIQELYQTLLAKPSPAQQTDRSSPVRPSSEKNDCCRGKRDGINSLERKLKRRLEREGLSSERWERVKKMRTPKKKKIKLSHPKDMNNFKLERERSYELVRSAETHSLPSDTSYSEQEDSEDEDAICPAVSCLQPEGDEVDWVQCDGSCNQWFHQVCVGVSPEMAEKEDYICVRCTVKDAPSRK

As for `COc1ccc(-c2c(-c3cc(C(=O)O)ccn3)ncn2C)cc1`, the IC50 in assay [1] fell in the range of 100 to 1000 nM; in assay [2], 1000 to 10000 nM; in assay [3] it was 100 to 1000 nM; in assay [4], 1000 to 10000 nM.
